The values that follow come from patent publication US12692221B2 (priority 2024, dated 2026).

Converted amounts (≈) assume the structure as drawn.

Data set [1] in a line: Aqueous solubility by sequential dilution in water, microscopic inspection. The conditions noted are these: for aqueous solubility relative to reference compound 2C-iBu: under the same conditions; for solubility: water, thermodynamic from solid.
The target of another data set is T1, GR (h) (Homo sapiens, UniProt P04150).
T1 construct: human endog; endogenous in cells; host or cells: IM-9 cells
T1 sequence (P04150 1-777): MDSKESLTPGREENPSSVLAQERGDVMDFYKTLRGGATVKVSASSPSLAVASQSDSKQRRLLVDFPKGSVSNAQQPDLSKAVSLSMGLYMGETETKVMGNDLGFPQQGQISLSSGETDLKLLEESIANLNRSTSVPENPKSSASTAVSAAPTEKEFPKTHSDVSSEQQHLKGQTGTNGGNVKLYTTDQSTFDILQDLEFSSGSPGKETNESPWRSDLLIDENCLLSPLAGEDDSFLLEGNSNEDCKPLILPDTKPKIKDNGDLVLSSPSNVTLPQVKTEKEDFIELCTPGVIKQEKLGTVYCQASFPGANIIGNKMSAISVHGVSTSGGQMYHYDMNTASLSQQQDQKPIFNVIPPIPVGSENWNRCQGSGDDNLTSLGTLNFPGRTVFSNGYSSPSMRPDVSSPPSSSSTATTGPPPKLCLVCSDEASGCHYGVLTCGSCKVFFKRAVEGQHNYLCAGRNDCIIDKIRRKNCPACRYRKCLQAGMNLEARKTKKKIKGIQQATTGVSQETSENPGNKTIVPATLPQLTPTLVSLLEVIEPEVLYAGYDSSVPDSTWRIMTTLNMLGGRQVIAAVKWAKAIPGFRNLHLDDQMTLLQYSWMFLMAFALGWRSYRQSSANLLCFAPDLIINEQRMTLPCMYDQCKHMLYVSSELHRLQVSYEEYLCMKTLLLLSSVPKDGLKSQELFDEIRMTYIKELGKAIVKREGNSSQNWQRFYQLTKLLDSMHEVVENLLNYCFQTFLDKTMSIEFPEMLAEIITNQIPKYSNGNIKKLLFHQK
Put plainly: Radioligand binding GR (h) (agonist radioligand), [^3H]dexamethasone, IM-9 cells.

For a further data set, the target named is T2, H2 (h) (Homo sapiens, UniProt P25021).
T2 construct: expressed in transfected cells; host or cells: CHO cells
Description: Radioligand binding H2 (h) (antagonist radioligand), [^125I]APT, CHO cells. The procedure:
Methods—Binding Assays: In vitro binding assays were performed using human recombinant receptors expressed in mammalian cell lines. Receptors were expressed in either HEK-293 or CHO cells depending on the target, and assay conditions (radioligand, concentration, nonspecific competitor, temperature, and incubation time) were optimized for each receptor. All assays were conducted in triplicate, and specific binding was quantified by scintillation counting as the detection method for each listed assay.
Specific binding was expressed as a percentage of control-specific binding, and percent inhibition was calculated using the formula in Ex. 8 above. Half-maximal inhibitory concentrations (IC50) were determined by non-linear regression analysis of the inhibition curves using the Hill equation (see Ex. 8). Inhibition constants (Ki) were calculated using the Cheng-Prusoff equation (see Ex. 8). KD values used in these calculations had been previously established for each receptor under the assay conditions (see Table 6). Data analysis was performed using software developed at Cerep and validated against SigmaPlot 4.0 for Windows.

In data set [2] the target is T3, 5-HT2B (Homo sapiens, UniProt P41595). Put plainly: Calcium flux agonist assay, 293T cells. In kind it is cell-based. On the set-up: expressed in transfected cells; host or cells: Human Embryonic Kidney (293T) cells, transient. As to conditions: for Emax: HEK-293T, normalized to maximum 5-HT response; for 5-HT2B receptor activation: in words. A general note: Calcium assays in cells follow changes in intracellular calcium, usually with a dye or a luminescent sensor.

Data set [3] deals with T3, 5-HT2B. Description: IP-One HTRF IP-1 accumulation functional assay, 5-HT2B/HEK293. In kind it is cell-based. On the set-up: host or cells: HEK293. The procedure: Methods (5-HT2B IP-One Functional Activity Assays): Intracellular accumulation of IP-1 was measured using an IP-One HTRF) assay kit (Cat. #62IPAPEJ, Cisbio) at WuXi AppTec Co. Ltd. (Hong Kong) Discovery Biology Unit according to their standard protocols. Briefly, 5-HT2B/HEK293 were plated in a 384-well plate and incubated at 37° C. and 5% CO2 overnight. The reference compounds and screening compounds were 3.16-fold serially diluted in 100% DMSO for 10 points using Bravo. 70 nL of compounds were added to the cell plate using Echo555. Incubated for 60 minutes at 37° C. Added 3 μL of IP-1 d2 Reagent working solution and 3 μL of IP-1 Tb Cryptate Antibody working solution to all wells. The plates were incubated for 1 hour at room temperature and read on for fluorescence at 620 nm and 665 nm on an EnVision Multimode Plate Reader (PerkinElmer). The ratio of the acceptor and donor emission signals (665/620) were calculated for each individual well and substituted into the standard curve to obtain the log concentration of IP level. After converting to the antilog base IP-1, the average background control signal was subtracted from each well and values were normalized to the maximal response of 5-HT at 3 μM (100%). % MAX was calculated by taking the average normalized maximal response at the highest concentration tested. Data were analyzed using the four-parameter nonlinear regression curve-fitting function in GraphPad Prism 5 (GraphPad Software, San Diego, CA) to generate potency (EC50) values. Parameter constraint “Top=100” was used in the analysis of 5-HT2B IP-1. Represented plots show normalized IP-1 values versus compound concentrations; the corresponding numerical data are parameter estimates for the concentration-response curve using the 4-parameter nonlinear regression curve-fitting function in GraphPad Prism 10. “Top=100” parameter constraint was not enabled for the represented plot analysis.
On the technique in general: Time-resolved FRET reads energy transfer from a long-lived donor to a nearby acceptor.

T3 sequence (P41595 whole entry): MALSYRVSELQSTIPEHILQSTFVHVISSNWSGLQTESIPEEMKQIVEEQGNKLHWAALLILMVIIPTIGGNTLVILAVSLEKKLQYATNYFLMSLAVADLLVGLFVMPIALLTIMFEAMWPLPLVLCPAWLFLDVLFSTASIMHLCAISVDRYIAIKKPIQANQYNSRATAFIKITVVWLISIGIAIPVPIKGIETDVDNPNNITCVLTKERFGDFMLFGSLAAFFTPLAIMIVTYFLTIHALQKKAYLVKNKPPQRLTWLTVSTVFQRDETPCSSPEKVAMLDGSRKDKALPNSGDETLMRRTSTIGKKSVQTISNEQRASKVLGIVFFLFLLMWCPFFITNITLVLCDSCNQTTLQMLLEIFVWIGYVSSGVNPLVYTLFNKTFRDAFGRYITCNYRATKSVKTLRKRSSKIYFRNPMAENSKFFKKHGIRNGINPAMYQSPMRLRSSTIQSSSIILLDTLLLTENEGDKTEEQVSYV
T2 sequence (P25021 whole entry): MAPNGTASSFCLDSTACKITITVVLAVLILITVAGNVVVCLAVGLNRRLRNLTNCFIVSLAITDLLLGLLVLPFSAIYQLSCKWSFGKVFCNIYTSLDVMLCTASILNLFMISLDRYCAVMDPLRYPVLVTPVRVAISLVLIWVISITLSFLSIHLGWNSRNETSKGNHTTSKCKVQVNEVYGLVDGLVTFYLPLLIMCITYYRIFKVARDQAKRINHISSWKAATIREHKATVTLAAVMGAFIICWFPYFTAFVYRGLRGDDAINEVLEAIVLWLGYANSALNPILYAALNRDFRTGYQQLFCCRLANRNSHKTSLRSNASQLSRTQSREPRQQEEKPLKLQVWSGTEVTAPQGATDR

`COCc1cc(CCN)c(O)cc1CC(C)C` [2CiBu-2OH-5MM, 2-(2-aminoethyl)-5-isobutyl-4-(methoxymethyl)phenol]: in data set [1], the “aqueous solubility relative to reference compound 2C-iBu” value is on record as “significantly higher aqueous solubility” and the solubility was determined as 110 mM (≈ 26.2 mg/mL). The “Mean Percent Inhibition of Control Specific Binding” value (“Mean Percent Inhibition” below) at GR (h) is listed as −3.1%. In addition, the “Mean Percent Inhibition” value on H2 (h) is 12.5%. In addition, on 5-HT2B [2] (calcium flux, 5-HT2B), the Emax worked out at 2.64% and the “Potency (EC50)” value is “Unstable”. Moreover, on 5-HT2B [2] (calcium flux), the 5-HT2B receptor activation entry is reported as “unexpectedly reduced 5-HT2B receptor activation”.

`COCCc1cc(CCN)c(OC)cc1Br` [Compound 2CB-5ME, reference compound]: the “Mean Percent Inhibition” value at GR (h) is given as −0.5%; on H2 (h) it was −0.6%. Besides, on 5-HT2B [3], the EC50 was 131 nM.

Regarding `COCc1cc(CCN)c(OC)cc1CC(C)C` [Compound 2CiBu-5MM, 2-[4-isobutyl-2-methoxy-5-(methoxymethyl)phenyl]ethanamine], the “aqueous solubility relative to reference compound 2C-iBu” value in data set [1] is recorded as “significantly higher aqueous solubility”; in data set [1] (listed as Compound 8), “over ten times more soluble”. The compound further had a solubility in data set [1] of 365 mM (≈ 91.7 mg/mL). The “Mean Percent Inhibition” value is listed as −3.9% on GR (h) and −16.5% on H2 (h). Besides, the EC50 was 825 nM on 5-HT2B [3] and 497 nM at 5-HT2B [2]. The Emax on 5-HT2B [2] (calcium flux, 5-HT2B) came to 45.7%. Moreover, the 5-HT2B receptor activation entry at 5-HT2B [2] (calcium flux) is listed as “unexpectedly reduced 5-HT2B receptor activation”.

Turning to `COCc1cc(CCN)c(OC)cc1Br` [Compound 2CB-5MM, 2-(4-bromo-2-methoxy-5-(methoxymethyl)phenyl)ethan-1-amine], in data set [1], the concentration in solution (solubility) was 43.5 mM (≈ 11.9 mg/mL). The figures for the “Mean Percent Inhibition” value at GR (h) and on H2 (h) were −7.2% and −14.7%, respectively. Besides, the results for the EC50 at 5-HT2B [3] and at 5-HT2B [2] were 78.6 nM and 23.4 nM, respectively. The Emax on 5-HT2B [2] (calcium flux, 5-HT2B) was found to be 94%.

As usually defined, the solubility is how much of the substance goes into solution per volume. Read a low solubility as little dissolved substance. As usually defined, the Emax is the size of the effect at its maximum, as opposed to the concentration needed. Broadly, the EC50 is the midpoint of the concentration-response curve.
